According to patent US20220257592A1, “METHODS OF TREATING CANCER” (HOFFMANN-LA ROCHE INC., priority 2019, published 2022):

Test: Circulating exposure at steady-state in patients
Format: in vivo, human

- circulating M5 exposure as share of corresponding entrectinib exposure: 40%
Compound: O=C(Nc1n[nH]c2ccc(Cc3cc(F)cc(F)c3)cc12)c1ccc(N2CCNCC2)cc1NC1CCOCC1 [M5]
